Experimental data reported in US5817757A, “Inhibitors of peptide binding to MHO class II proteins” (Merck & Co., Inc., priority 1996, dated 1998).
Like-named read-outs stand apart in the source and are kept apart here.

Biological target: T1, DR1Dw1 (Homo sapiens, UniProt P01903+P01911, A100R/D57E/F55L/F60I/F76Y/I96L/L162R/M171V/P40L/Q125E/R42F/V115G/Y59C)
T1 construct: these are Drosophila transmembrane DR; made in house; host or cells: Drosophila (cells)
Test: Inhibition of biotinylated RMBP 90-102 peptide binding to MHC class II DR1 (europium-streptavidin capture assay)
Experimental: In studies optimizing the assay it was determined that only between 5 to 10% of the DR molecules are capable of binding added peptide. Therefore, the effective concentration of DR1Dw1 and DR4Dw4 was approximately 0.125 and 1.0 nM, respectively. […] The DR-peptide complexes (50 μL) are transferred to wells of a 96-well EIA plate precoated with LB3.1, the monoclonal antibody which recognizes the DR alleles of MHC Class II, and blocked with PBS with fetal calf serum (FCS). An additional 50 μL of 50 mM Tris, pH 7.0, containing 0.75% octyl glucoside is added to each well and the mixture incubated overnight at 4° C. Excess peptide is removed by washing with PBS containing 0.05% Tween 20 (Polyoxyethylene sorbitan monolaurate) and 0.01% NaN3. Europium-labeled streptavidin (Wallac Inc.) is added and incubated overnight. After washing, complexes are measured by the addition of Enhance™ buffer, the tradename for 0.1M acetate phthalate buffer, pH 3.2, containing 0.1% Triton X-100, tradename for polyoxyethylene ethers and other surface active compounds of Union Carbide Chemicals and Plastics Co., Inc. (particularly, a non-ionic surfactant for recovery of membrane components under non-denaturing conditions) 15 μM 2-naphthoyltrifluoroacetone, and 50 μM tri-N-octylphosphine oxide, which buffer releases the chelated europium from streptavidin and forms a highly fluorescent micellar solution. The resultant fluorescence is measured using a fluorescent plate reader (e.g., DELPHIA, Wallac, Inc.). The data are analyzed using a four-parameter logistical curve […] program (e.g., SigmaPlot) that calculates the concentration of biotinylated peptide giving a half-maximal signal (ED50).
The inhibition assay format is identical to the procedure described above with the exception that the unlabeled antagonist is serially diluted and incubated with constant concentrations of biotinylated RMBP 90-102 (0.3 nM for DR1Dw1 or 0.9 nM for DR4Dw4) and the MHC class II proteins. The concentration of unlabeled compound that prevents 50% of the labeled peptide from binding is the IC50 value. The concentration of the biotinylated RMBP 90-102 in each assay is experimentally determined to be […] one-sixth of its measured ED50 to assure the inhibition was primarily measuring the binding characteristics of the competitor.
In particular, a protocol for carrying out the inhibition assay is given below.
Add 115 μL of 5μg/mL LB3.1 in 50 mM Tris HCl pH 9.6/azide to each well of a Costar EIA plate. Incubate the plate overnight at 4° C.
Wash the plate 4 times with water/0.05% Tween-20/azide. Add 200 μL of PBS /5% FCS/azide for 1 hour at 4° C. to block the plate. The plate may be held at this point for later use or used immediately.
Flip out the block. It is not necessary to wash the plate. At 50 μL of load buffer (50 mM Tris HCl, pH 8.0 0.75% octylglucoside). Add to this volume 50 μL of the reaction mix from day 2, step 3 below.
(1) Add the following to a polypropylene round bottom 96-well plate such as a Costar #3794:
(A) Diluent (Ca Mg free PBS adjusted to pH 6.5 with 0.1 M KH2 PO4/0.75% octylglucoside/azide).81 μL
(B) Competitor at 16.6 times the final concentration in diluent or diluent alone. 9 μL
(C) biotinylated rat myelin basic protein (BRMBP) 90-102; 1.5 nM for DR1 or 4.5 nM for DR4 (These are 5× stocks of final concentrations of 0.3 nM/DR1 or 0.9 nM/DR4) 30 μL
(D) 6.25 nM DR1Dw1 or 50 nM DR4Dw4 (these are Drosophila transmembrane DR) (This is a 5× stock of the final concentration of 1.25 or 10 nM.) 30 μL Add the DR last and mix well at this time 150 μL
(2) Incubate at 37° C. for 20 min and 5 hours.
(3) Add 50 μL of this reaction mixture to one well of the blocked antibody plate from day 2 above.
(4) Incubate overnight at 4° C. to capture the DR-peptide complexes.
(6) Add 125 μL of 100 ng/mL europium streptavidin (Wallac Inc.) in Ca Mg free PBS with 3.5 mg DTPA, 1.6 mL of 30% BSA/500 mL to each well.
(7) Incubate 2 to 4 hours at 4° C. […]

[1] = incubation at 37° C. for 20 min, 0.3 nM biotinylated RMBP 90-102, 1.25 nM DR1Dw1, pH 6.5, read-out: IC50 /μM @ 20'
[2] = incubation at 37° C. for 5 hours, 0.3 nM biotinylated RMBP 90-102, 1.25 nM DR1Dw1, pH 6.5, read-out: IC50 /μM @ 5h

| IC50 [1] [µM] | IC50 [2] [µM] | Compound |
| --- | --- | --- |
| 0.26 | 1.59 | CCCC(NC(=O)C(C)(C)NCCCC1CCCCC1)C(=O)NC(CC(C)C)C(N)=O (stereo not drawn) [Example 2, N-α((2-Methyl-2-((3-cyclohexyl)propylamino))-propanoyl)-Nva-Leu-NH2] |
| 0.21 | 1.43 | CCCC(NC(=O)C(Cc1cccnc1)NCCCC1CCCCC1)C(=O)NC1CCCCNC1=O (stereo not shown) [Example 5] |
| 0.25 | 1.7 | CCC[C@H](NC(=O)[C@H](CCCCN)NC(=O)C=Cc1ccccc1C)C(=O)N[C@@H](CC(C)C)C(N)=O [Example 13, α-[2-methylcinnamoyl]-Lys-Nva-Leu-NH2] |
| 0.16 | 1.25 | CCCC(NC(=O)C(CCCCN)NC(=O)CC(C)c1ccccc1)C(=O)NC(CC(C)C)C(N)=O (stereo not drawn) [Example 34, α-[3R-methyl-3-phenylpropionyl]-Lys-Nva-Leu-NH2] |
| 0.04 | 0.187 | CCCC(NC(=O)C(CCCCN)NC(=O)CC(C)C1CCCCC1)C(=O)NC(CC(C)C)C(N)=O (stereo not drawn) [Example 36, α-[3R-methyl-3-cyclohexylpropionyl]-Lys-Nva-Leu-NH2] |
| 0.0052 | 0.059 | CCCC(NC(=O)C(CCCCN)NCCCC1CCCCC1)C(=O)NC(CC(C)C)C(N)=O (stereo not drawn) [Example 40, α-[3-Cyclohexylpropyl]-Lys-Nva-Leu-NH2] |
| 0.15 | 0.68 | CCCC(NC(=O)C(CCCCN)NCCCC1CCCCC1)C(=O)NN(CC(C)C)C(=O)OCC (stereo not drawn) [Example 48, α-[3 -Cyclohexylpropyl]-Lys-Nva-α-AzaLeu-OEt] |
| 0.046 | 0.26 | CCCCN(NC(=O)C(CCC)NC(=O)C(CCCCN)NCCCC1CCCCC1)C(=O)OCC (stereo not drawn) [Example 50, α-[3-Cyclohexylpropyl]-Lys-Nva-α-AzaNle-OEt] |
| 0.03 | 0.14 | CCCCN(NC(=O)C(CCC)NC(=O)C(CCCCN)NCC1CCc2ccccc2C1)C(=O)OCC (stereo not drawn) [Example 52, α-[1,2,3,4-tetrahydronaphthyl-2-methyl]-Lys-Nva-α-AzaNle-OEt] |
| 0.16 | 1.8 | α-[3-Phenylpropyl]-Lys-Nva-Leu-NH2 [Example 38] |
| 0.012 | 1.08 | α-[(1R,2S)-1-Cyclohexylcyclopropyl-1-carbonyl]-Lys-Nva-Leu-NH2 [Example 22] |
